These are literature values, as cited in patent US6667408B2, “Process for preparing cyclic polyethers” (Japan Science and Technology Corporation, priority 2000, dated 2003).

The series concerns mice. The following applies: i.p.

On to `C=CC/C=C\C=C/[C@H]1O[C@H]2C[C@H]3O[C@H]4CC[C@H]5O[C@H]6C[C@@]7(C)O[C@@]8(C)[C@@H](O)C[C@H](CCCO)O[C@@H]8C[C@@H]7O[C@@H]6C[C@@H]5O[C@]4(C)C[C@]3(C)O[C@@H]2C=C[C@]1(C)O` [gambierol], for which the LD50 is 0.05 mg/kg.

The term LD50 denotes the dose at which mortality reaches 50%.
